The text below walks through data of patent US20170283885A1, “ALGORITHMS FOR GENE SIGNATURE-BASED PREDICTOR OF SENSITIVITY TO MDM2 INHIBITORS” (DAIICHI SANKYO COMPANY, LIMITED, priority 2014, published 2017).

This assay concerns multi-cancer cell line panel. The experiment in a line: OncoPanel cytotoxicity assay, whole panel summary. The class given is cell-based, human. Here is the method:
This Example describes an evaluation of the effect of a representative small molecule MDM2i on the growth of cells in a multi-cancer cell line panel. In this Example, the MDM2 inhibitors used were Compound A and Compound B p-toluenensulfonate. The panel included 250 human cancer cell lines (OncoPanel™, Ricerca Biosciences, Painesville, Ohio) that were evaluated in a high content drug screening analysis. The relative IC50 values for the cell lines were determined.
Cells were grown in RPMI 1640, 10% FBS, 2 mM L-alanyl-L-Glutamine, 1 mM Na Pyruvate, or a special medium in a humidified atmosphere of 5% CO2 at 37° C. Cells were seeded into 384-well plates and incubated in a humidified atmosphere of 5% CO2 at 37° C. Test compounds were added 24 hours post cell seeding. […]
Compounds were serially diluted 3.16-fold and assayed over 10 concentrations of inhibitor in a final assay concentration of 0.1% DMSO from the highest test concentration specified in the sample information chapter. Automated fluorescence microscopy was carried out using a GE Healthcare InCell Analyzer 1000, and images were collected with a 4×objective. Twelve bit tiff images were acquired using the InCell Analyzer 1000 3.2 and analyzed with Developer Toolbox 1.6 software.
Cell proliferation was measured by the signal intensity of the incorporated nuclear dye. […]

Take `CC[C@@H]1CNC2(CC2)CN1C(=O)[C@@H]1C[C@@H](F)CN1C(=O)C1=C(C(C)C)N2C(=N[C@@](C)(c3ccc(Cl)nc3)[C@H]2c2ccc(Cl)c(F)c2)S1` [Compound A, [(5R,6S)-5-(4-Chloro-3-fluorophenyl)-6-(6-chloropyridin-3-yl)-6-methyl-3-(propan-2-yl)-5,6-dihydroimidazo[2,1-b][1,3]thiazol-2-yl][(2S,4R)-2-{[(6R)-6-ethyl-4,7-diazaspiro[2.5]oct-7-yl]carbonyl}-4-fluoropyrrolidin-1-yl]methanone]: the “share of the cell lines with IC50 values of <1 μM” value was “Approximately 25%” and the “share of the cell lines with IC50 values of >10” value is “approximately 70%”.
